Target: T1, EfrEF (Enterococcus faecalis, UniProt Q832J9+Q832K0)
T1 construct: gene EF_2226; heterodimeric ABC exporter, expressed in Lactococcus lactis NZ9000 from pNZ8048NH3, purified in DDM, reconstituted in proteoliposomes
Test: ATPase stimulation in proteoliposomes; also ethidium efflux from L. lactis cells
Format: biochemical
Settings: 1 mM ATP, 10 mM MgSO4, 50 mM HEPES pH 7.0, 30 °C; stimulator of ATPase

T1 sequence (Q832K0 entry or part of it): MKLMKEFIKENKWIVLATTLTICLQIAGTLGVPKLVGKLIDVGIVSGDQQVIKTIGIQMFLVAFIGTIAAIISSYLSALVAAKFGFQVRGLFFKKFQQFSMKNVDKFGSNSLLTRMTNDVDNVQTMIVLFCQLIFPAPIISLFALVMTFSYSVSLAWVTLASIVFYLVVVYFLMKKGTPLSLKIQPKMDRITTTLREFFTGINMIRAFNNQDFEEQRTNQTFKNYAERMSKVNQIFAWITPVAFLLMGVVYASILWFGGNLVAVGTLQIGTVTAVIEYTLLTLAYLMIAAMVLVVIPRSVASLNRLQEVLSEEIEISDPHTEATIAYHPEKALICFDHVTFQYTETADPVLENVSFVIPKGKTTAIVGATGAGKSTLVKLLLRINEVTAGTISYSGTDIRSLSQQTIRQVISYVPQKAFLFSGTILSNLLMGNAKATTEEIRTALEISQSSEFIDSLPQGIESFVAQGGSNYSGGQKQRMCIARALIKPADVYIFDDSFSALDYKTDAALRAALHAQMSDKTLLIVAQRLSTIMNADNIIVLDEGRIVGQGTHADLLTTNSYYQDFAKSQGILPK
T1 sequence (Q832J9 entry or part of it): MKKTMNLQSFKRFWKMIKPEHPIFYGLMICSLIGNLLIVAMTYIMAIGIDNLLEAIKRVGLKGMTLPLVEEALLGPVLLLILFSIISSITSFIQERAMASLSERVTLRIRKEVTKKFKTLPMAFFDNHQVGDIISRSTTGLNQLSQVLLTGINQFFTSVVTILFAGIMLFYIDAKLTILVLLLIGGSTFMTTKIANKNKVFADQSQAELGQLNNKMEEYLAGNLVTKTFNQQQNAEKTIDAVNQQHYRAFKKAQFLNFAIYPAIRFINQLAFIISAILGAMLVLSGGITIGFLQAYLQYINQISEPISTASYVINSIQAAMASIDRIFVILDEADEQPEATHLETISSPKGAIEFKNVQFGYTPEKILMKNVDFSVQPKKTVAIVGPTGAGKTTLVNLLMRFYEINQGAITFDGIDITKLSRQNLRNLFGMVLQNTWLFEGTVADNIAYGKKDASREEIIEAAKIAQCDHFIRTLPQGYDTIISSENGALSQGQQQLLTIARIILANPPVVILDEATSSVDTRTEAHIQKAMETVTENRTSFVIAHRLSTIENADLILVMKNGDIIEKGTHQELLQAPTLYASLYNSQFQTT

## CC[n+]1c(-c2ccccc2)c2cc(N)ccc2c2ccc(N)cc21 [ethidium]
  ATPase stimulation in proteoliposomes; also ethidium efflux from L. lactis cells: Wild-type EfrEF efficiently expels ethidium from the cell

Reference: PMC6529423, “The extracellular gate shapes the energy profile of an ABC exporter” (Nature Communications, 2019)
